Test systems include Hs-578T; SR; NCI/ADR-RES; UACC-257; COLO 205; HCC 2998; SNB-75; PC-3; HCT-15; NCI-H226; SW-620; OVCAR-3; NCI-H23; SK-MEL-5; CCRF-CEM; NCI-H460; A549; HCT-116; DU-145; A498.
Holding throughout (assay): NCI tumour cell line growth inhibition, 48 h

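In this assay, cells in 96-well plates receive the compound at five concentrations for 48 hours. Endpoints are linearly interpolated between the surrounding concentrations. GI50 is the concentration that inhibits growth by half.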 Calls of active or inactive are those of the source. Cut-off read from the data, not from the text of the source: active = GI50 up to about 1.1 µM and inactive = higher.

Consider `O=C(CSc1nc2nncc-2c(O)[nH]1)c1ccc(Cl)cc1`, for which the GI50 in the assay on Hs-578T, in the assay on SR, in the assay with NCI/ADR-RES, with UACC-257, in the assay on COLO 205 and in the assay on HCC 2998 was > 100 µM (inactive) in each case. In addition, the GI50 in the assay with SNB-75 was 0.246 µM (active); in the assay on PC-3 it was > 100 µM (inactive); with HCT-15 it was 93.8 µM; in the assay with NCI-H226 it was > 100 µM (inactive); with SW-620, > 100 µM (inactive); in the assay on OVCAR-3, > 100 µM (inactive). For the same compound, the GI50 in the assay on NCI-H23, in the assay with SK-MEL-5, in the assay on CCRF-CEM, in the assay on NCI-H460, with A549 and in the assay on HCT-116 was > 100 µM (inactive) throughout.

In the case of `O=c1cc(-c2ccccc2)nc(-n2[nH]c3c(c2=O)CCCC3)[nH]1`, the GI50 in the assay on Hs-578T was 23.4 µM (inactive); in the assay on SR, 1.03 µM (active); in the assay with UACC-257 it was 5.86 µM (inactive); with DU-145 it was 1.57 µM (inactive); with COLO 205, 3.82 µM (inactive); in the assay with SNB-75 it was 3.13 µM (inactive). Also, the GI50 in the assay on PC-3 was 5 µM (inactive); in the assay with HCT-15, 1.7 µM; in the assay on NCI-H226, 3.82 µM (inactive); with SW-620, 4.24 µM (inactive); in the assay on NCI-H23 it was 7.33 µM (inactive); with SK-MEL-5, 4.78 µM (inactive). The GI50 in the assay with CCRF-CEM is 0.769 µM (active); in the assay on NCI-H460, 1.08 µM (active); in the assay on A498, 17.6 µM (inactive); in the assay with A549 it was 4.35 µM (inactive); with HCT-116 it was 2.7 µM (inactive).

With `c1ccc2c(c1)SCCCSCCCS2`, the GI50 is 50.5 µM (inactive) in the assay with SR; > 100 µM (inactive) in the assay on NCI/ADR-RES; > 100 µM (inactive) in the assay with UACC-257; > 100 µM (inactive) in the assay with DU-145; 74.5 µM (inactive) with COLO 205; > 100 µM (inactive) with HCC 2998. For the same compound, the GI50 in the assay on SNB-75 was > 100 µM (inactive); in the assay on PC-3 it was > 100 µM (inactive); in the assay on HCT-15 it was greater than 100 µM; with SW-620, > 100 µM (inactive); in the assay on OVCAR-3, > 100 µM (inactive); with NCI-H23, > 100 µM (inactive). The GI50 in the assay with SK-MEL-5 was > 100 µM (inactive); in the assay on CCRF-CEM it was > 100 µM (inactive); in the assay on NCI-H460, > 100 µM (inactive); in the assay with A549 it was > 100 µM (inactive); in the assay with HCT-116, 63.4 µM (inactive).

Take `Nc1nccc2c1ncn2C1C=C(CO)C(O)C1O` (stereo not given): the GI50 in the assay with SR was 3.29 µM (inactive); in the assay with NCI/ADR-RES, 7.05 µM (inactive); with UACC-257 it was 18.4 µM (inactive); with DU-145 it was > 100 µM (inactive); with COLO 205, 19.7 µM (inactive); with HCC 2998, 48.2 µM (inactive). Besides, the GI50 in the assay on SNB-75 is 62.1 µM (inactive); with PC-3, > 100 µM (inactive); in the assay with HCT-15, 13.2 µM; with NCI-H226, 49.1 µM (inactive); in the assay on SW-620, 1.75 µM (inactive); with OVCAR-3, > 94.4 µM (inactive). Also, the GI50 was 68.7 µM (inactive) in the assay on NCI-H23; 356 µM (inactive) in the assay on SK-MEL-5; 2.76 µM (inactive) in the assay on CCRF-CEM; 1.41 µM (inactive) with NCI-H460; > 100 µM (inactive) with A498; 98.4 µM (inactive) in the assay on A549. In the assay on HCT-116, the GI50 is 1.28 µM (inactive).

As for `CC(=O)/C(=C/N1CC(=O)NC1=S)C(=O)Nc1ccccc1C`, the GI50 in the assay on NCI/ADR-RES, in the assay on UACC-257, with DU-145, with COLO 205, with HCC 2998 and in the assay on SNB-75 was > 100 µM (inactive) throughout. The GI50 is greater than 100 µM in the assay on HCT-15; > 10 µM (inactive) in the assay on NCI-H226; > 100 µM (inactive) with SW-620; > 100 µM (inactive) with OVCAR-3; > 100 µM (inactive) in the assay with NCI-H23; > 100 µM (inactive) in the assay with SK-MEL-5. The GI50 in the assay with NCI-H460, with A498, with A549 and in the assay on HCT-116 was > 100 µM (inactive) throughout.

For the compound `CC1(C)O[C@H]2[C@@H]3N=C(c4ccccc4)O[C@@H]3C=C[C@H]2O1`, the GI50 with SR, with NCI/ADR-RES, in the assay with UACC-257, in the assay with DU-145, in the assay on COLO 205 and in the assay on HCC 2998 was > 100 µM (inactive) in each case. Further, the GI50 in the assay with PC-3 was > 100 µM (inactive); with HCT-15 it was greater than 100 µM; in the assay with NCI-H226, > 100 µM (inactive); with SW-620, > 100 µM (inactive); with OVCAR-3 it was > 100 µM (inactive); in the assay with NCI-H23, > 100 µM (inactive). In addition, the GI50 in the assay with SK-MEL-5, with CCRF-CEM, in the assay with A498, in the assay on A549 and in the assay with HCT-116 was > 100 µM (inactive) in each case.

As for `NC12CC3C4CC5(N)CC3C(C1)C(C5)C4C2`, the GI50 is > 100 µM (inactive) with Hs-578T; > 100 µM (inactive) with NCI/ADR-RES; > 100 µM (inactive) in the assay on UACC-257; > 100 µM (inactive) in the assay with COLO 205; > 100 µM (inactive) in the assay with PC-3; greater than 100 µM in the assay on HCT-15. The GI50 with NCI-H226, with SW-620, in the assay on OVCAR-3, with NCI-H23, in the assay on SK-MEL-5 and in the assay on CCRF-CEM was > 100 µM (inactive) in each case. Besides, the GI50 with NCI-H460, in the assay on A498, with A549 and in the assay with HCT-116 was > 100 µM (inactive) throughout.

As for `Cc1ccc(N2C(=O)C=C(C3=C(O)C(=O)N(c4ccc(C)cc4)C3=O)C2=O)cc1`, the GI50 with SR, in the assay with NCI/ADR-RES, with UACC-257, in the assay on DU-145, in the assay with COLO 205 and in the assay with HCC 2998 was > 100 µM (inactive) in each case. The GI50 in the assay with SNB-75 was 42.3 µM (inactive); in the assay on PC-3 it was > 100 µM (inactive); in the assay on HCT-15, greater than 100 µM; in the assay with NCI-H226, > 100 µM (inactive); with SW-620 it was > 100 µM (inactive); with OVCAR-3, > 100 µM (inactive). Moreover, the GI50 in the assay with NCI-H23, in the assay on SK-MEL-5, in the assay with CCRF-CEM, with NCI-H460, with A498 and in the assay on A549 was > 100 µM (inactive) in each case. The GI50 in the assay with HCT-116 was > 100 µM (inactive).

For `O=C(C/N=C(\CN(c1ccccc1)c1ccccc1)Oc1c([N+](=O)[O-])cc([N+](=O)[O-])cc1[N+](=O)[O-])N1CCNCC1`, the GI50 in the assay on Hs-578T is 25.4 µM (inactive); with SR it was > 100 µM (inactive); in the assay on UACC-257, > 100 µM (inactive); in the assay with DU-145, > 100 µM (inactive); in the assay with COLO 205, > 100 µM (inactive); with HCC 2998, > 100 µM (inactive). Also, the GI50 in the assay on SNB-75 is 10.5 µM (inactive); with PC-3 it was > 100 µM (inactive); in the assay with HCT-15, greater than 100 µM; with NCI-H226, > 100 µM (inactive); in the assay on SW-620 it was > 100 µM (inactive); in the assay with OVCAR-3, > 100 µM (inactive). In addition, the GI50 was > 100 µM (inactive) with NCI-H23; 28.7 µM (inactive) in the assay with SK-MEL-5; > 100 µM (inactive) with CCRF-CEM; > 100 µM (inactive) in the assay on NCI-H460; > 100 µM (inactive) with A549; > 100 µM (inactive) in the assay on HCT-116.

Turning to `COC(=O)C1C(=O)CC(C)(O)C(C(=O)OC)C1c1ccc(N(C)C)cc1` (stereo not given), the GI50 in the assay with SR, in the assay on NCI/ADR-RES, with UACC-257, in the assay on DU-145, in the assay on COLO 205 and in the assay on HCC 2998 was > 100 µM (inactive) in each case. Moreover, the GI50 is > 100 µM (inactive) in the assay with SNB-75; > 100 µM (inactive) with PC-3; greater than 100 µM with HCT-15; > 100 µM (inactive) with NCI-H226; > 100 µM (inactive) in the assay with SW-620; > 100 µM (inactive) with OVCAR-3. The GI50 in the assay on NCI-H23, in the assay on SK-MEL-5, in the assay on CCRF-CEM, in the assay with NCI-H460, in the assay on A498 and in the assay with A549 was > 100 µM (inactive) throughout. Further, the GI50 in the assay with HCT-116 was 8.67 µM (inactive).

As to `O=C1[C@H](O)[C@@H]2CCC[C@@]23CCCN13`, the GI50 with Hs-578T, with SR, in the assay on NCI/ADR-RES, in the assay with UACC-257, in the assay with DU-145 and in the assay on COLO 205 was > 100 µM (inactive) in each case. Further, the GI50 in the assay on HCC 2998 is > 100 µM (inactive); in the assay on SNB-75 it was > 100 µM (inactive); in the assay with HCT-15, greater than 100 µM; with NCI-H226, > 100 µM (inactive); in the assay with SW-620 it was > 100 µM (inactive); in the assay on OVCAR-3, > 100 µM (inactive). Besides, the GI50 is > 100 µM (inactive) with NCI-H23; > 100 µM (inactive) in the assay on SK-MEL-5; 94.4 µM (inactive) with CCRF-CEM; > 100 µM (inactive) in the assay on NCI-H460; > 100 µM (inactive) with A498; > 100 µM (inactive) in the assay on A549. Besides, the GI50 in the assay with HCT-116 is > 100 µM (inactive).

The values are drawn from ChEMBL document CHEMBL1201862, “PubChem BioAssay data set” (2004).
